# Measured values from patent publication US5981494A, “Use of glycosidase inhibitors” (University College London, priority 1997, dated 1999).
# Assays:
# [1] = system: thioglycollate-induced peritoneal macrophages; assay: TNF induction from thioglycollate-induced peritoneal macrophages (ELISA and L929 cytotoxicity bioassay); format: cell-based, murine
# Method: Serial dilutions of an extract of parasitized RBC which (undiluted) induced 435 ng/ml of TNF as determined by ELISA and 30,400 U/ml in the bioassay were incubated at pH 8.0 at 37° C. overnight with a series of concentrations of α-galactosidase from Sigma or from Oxford Glycosystems, boiled, neutralised and then tested on macrophages for TNF induction by bioassay and ELISA (means of duplicates). The amount of TNF that would have been induced by the original undiluted extract was then calculated.
# (§1) (One of 2 experiments) (A) Rate of reaction of 0.04 U/ml of α-galactosidase at 37° C. with p-nitrophenyl-α-D-galactopyranoside as substrate as determined over the first 3 mins. (B) Malaria toxin from P. yoelii diluted 1/10 and (C) 50 ng/ml of LPS were incubated overnight at 37° C. with 2 U/ml of α-galactosidase,then boiled and tested on macrophages for TNF induction, assayed by ELISA. (Means of duplicates).
# Mice bred at University College London ((CBA×Balb/c)F1 or CBA×C57B1) F1) were infected with P. yoelii YM or P. berghei ANKA. Parasitized RBC (1×10^8/ml)in Earle's Balanced Salt Solution (BSS; Life Technologies Ltd, Paisley, U.K.) were incubated at 37° C. overnight, then disrupted by freezing and thawing, digested overnight with 250 μg pronase E (Sigma) per mg of protein (determined by BioRad assay), boiled, treated with 25 μg/ml polymyxin B agarose (Sigma) to eliminate endotoxin, filtered through a 0.2-μm filter (Sartorius AG, Gottingen, Germany) and stored at 4° C. (24). TNF induction from thioglycollate-induced peritoneal macrophages and ELISA assays for murine TNF were described previously (24). Polymyxin B (5 μg/ml) was included in all experiments with malaria toxin to exclude effects from contaminating LPS. A more sensitive one-plate procedure for TNF production and assay was also used (5). Cytotoxicity assays for TNF were done using L929 cells (23). Green coffee bean α-D-galactosidase was obtained from 2 sources (Sigma, Poole, Dorset, UK and Oxford GlycoSystems Ltd, Abingdon, Oxford UK).
# [2] = α-galactosidase hydrolysis of p-nitrophenyl-α-D-galactopyranoside (αPNP-Gal); format: biochemical
# Method: as §1
# The α-galactosidase hydrolysis of p-nitrophenyl-α-D-galactopyranoside (αPNP-Gal) is optimal at pH 6.0 (4, 9) and undetectable at pH 8.0 (9), as we confirmed, but enhancement of TNF-induction by malaria toxin was greatest at pH 8.0 (FIG. 2.). […] The degree of enhancement also varied with the concentration of LPS, and at higher concentrations enhancement was also detectable at pH 6.0.
# [3] = β-galactosidase activity against βPNP-Gal; format: biochemical; conditions: pH 6.0; α-galactosidase preparations
# From the text: This was supported by the observation of batch to batch variability and the fact that the stability of the TNF-enhancing activity differed from the αPNP-Gal activity. Although all enzyme preparations were first dialysed and adjusted to the same activity against αPNP-Gal, batches from different sources enhanced to different degrees (as illustrated in FIG. 1). […] Apart from BSA, all preparations contained 3 bands of 33 kD, 29 kD and 27 kD; 28 kD and 36.5 kD isoforms were previously described (4).
substance,measurement,setting,value
α-galactosidase: Green coffee bean α-D-galactosidase obtained from Sigma and Oxford GlycoSystems,"TNF secretion of macrophages pre-treated with enzyme, then stimulated with toxin or LPS","[1]; 2 U/ml enzyme for 1 hr at 37° C., then toxin or 2 or 10 ng/ml LPS",did not secrete more TNF than untreated cells
same,TNF induction from macrophages incubated with enzyme only,[1]; 2 U/ml enzyme only,No TNF was induced
same,increase in potency of LPS in stimulating the release of TNFα from macrophages,[1]; bacterial derived LPS treated with the enzyme,10-100 fold
same,enhancement of TNF induction with boiled enzyme,[1]; boiled enzyme,no enhancement occurred
same,enhancement of TNF induction by malaria toxin (extracts of infected RBC) pre-treated with enzyme,[1]; extracts of RBC infected with P. yoelii or P. berghei,Significant increase in TNF-induction
same,pH of greatest enhancement of TNF-induction by malaria toxin,[1]; overnight at 37° C. with 2 U/ml enzyme,8.0 pH
same,enhancement of TNF-inducing activity of LPS,[1]; similar pH profile to the toxin,also enhanced
same,stability of TNF-enhancing capacity on storage,[1]; storage at 4° C.,deteriorated
same,pH optimum of hydrolysis of αPNP-Gal,[2],6.0 pH
same,hydrolysis of αPNP-Gal at pH 8.0,[2]; pH 8.0,undetectable
same,β-galactosidase activity against βPNP-Gal,[3],No β-galactosidase activity was detectable
